# According to article PMC1069517 (Nucleic Acids Research, 2005):
# B1: [35S]Met-tRNAi (structured_RNA)
# RNA: AGCGGGGUGGGCUAGCCUGGUAAGGCCGCGGGGCUCAUAACCCCGAGGUCCCUGGUUCAAAUCCAGGCCCCGCUACCA
# modifications: 3' aminoacylated with methionine; no base modifications (in vitro transcript)
# Tests used:
# a/eIF2 β–γ dimer = target: T1, a/eIF2 β–γ dimer (Saccharolobus solfataricus, UniProt Q980A5); assay: nitrocellulose filter binding; details: 65 °C, 30 mM KCl, 50 mM HEPES pH 7.5, 0.5 mM MgCl2, 1 mM DTT; labelled compound
# T1 sequence (Q980A5 1-415): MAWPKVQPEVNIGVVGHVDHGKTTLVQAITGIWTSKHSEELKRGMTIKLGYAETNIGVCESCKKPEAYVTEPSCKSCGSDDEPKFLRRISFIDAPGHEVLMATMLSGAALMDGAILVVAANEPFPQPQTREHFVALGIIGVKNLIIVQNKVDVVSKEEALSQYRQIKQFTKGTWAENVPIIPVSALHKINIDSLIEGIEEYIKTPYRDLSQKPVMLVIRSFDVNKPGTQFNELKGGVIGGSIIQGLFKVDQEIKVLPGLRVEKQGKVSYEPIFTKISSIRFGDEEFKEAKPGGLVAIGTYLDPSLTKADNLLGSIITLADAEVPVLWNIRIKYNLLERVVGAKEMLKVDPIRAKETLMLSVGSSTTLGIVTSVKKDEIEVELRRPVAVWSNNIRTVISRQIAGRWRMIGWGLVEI
# T1 sequence (Q97W59 1-139 partner): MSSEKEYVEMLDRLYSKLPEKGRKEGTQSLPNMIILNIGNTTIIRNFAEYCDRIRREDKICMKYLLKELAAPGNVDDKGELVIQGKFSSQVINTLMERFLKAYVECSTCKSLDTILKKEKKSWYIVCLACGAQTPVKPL
# a/eIF2 α–γ dimer = target: T2, a/eIF2 α–γ dimer (Saccharolobus solfataricus, UniProt Q980A5); assay: nitrocellulose filter binding; details: 65 °C, 30 mM KCl, 50 mM HEPES pH 7.5, 0.5 mM MgCl2, 1 mM DTT; labelled compound
# T2 sequence (Q980A5 1-415): T1 sequence (Q980A5 1-415)
# T2 sequence (Q97Z79 1-266 partner): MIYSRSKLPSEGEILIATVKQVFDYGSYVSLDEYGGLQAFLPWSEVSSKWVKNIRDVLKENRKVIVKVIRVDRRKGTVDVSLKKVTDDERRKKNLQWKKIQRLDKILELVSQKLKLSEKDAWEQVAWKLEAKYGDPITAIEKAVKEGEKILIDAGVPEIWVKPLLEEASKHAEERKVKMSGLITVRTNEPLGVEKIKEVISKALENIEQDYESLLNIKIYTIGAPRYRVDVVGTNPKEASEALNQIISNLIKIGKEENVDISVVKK
# [1] = target: T3, a/eIF2 alpha subunit;a/eIF2 beta subunit;a/eIF2 gamma subunit (Saccharolobus (Sulfolobus) …, UniProt Q97Z79;Q97W59;Q980A5 1-266;1-139;1-415, ||); assay: filter binding
# T3 sequence 1: T2 sequence (Q97Z79 1-266 partner)
# T3 sequence 2: T1 sequence (Q97W59 1-139 partner)
# T3 sequence 3: T1 sequence (Q980A5 1-415)
# [2] = target: T4, a/eIF2 alpha subunit;a/eIF2 gamma subunit (Saccharolobus (Sulfolobus) …, UniProt Q97Z79;Q980A5 1-266;1-415, |); assay: filter binding
# T4 sequence 1: T2 sequence (Q97Z79 1-266 partner)
# T4 sequence 2: T1 sequence (Q980A5 1-415)
molecule,measurement,setting,value
Nc1nc2c(ncn2[C@@H]2O[C@H](COP(=O)(O)OP(=O)(O)O)[C@@H](O)[C@H]2O)c(=O)[nH]1 [GDP],nitrocellulose filter binding,a/eIF2 β–γ dimer,displayed GDP and GTP binding curves essentially overlapping with those obtained with the γ-subunit alone
same,nitrocellulose filter binding,a/eIF2 α–γ dimer,displayed GDP and GTP binding curves essentially overlapping with those obtained with the γ-subunit alone
Nc1nc2c(ncn2[C@@H]2O[C@H](COP(=O)(O)OP(=O)(O)OP(=O)(O)O)[C@@H](O)[C@H]2O)c(=O)[nH]1 [GTP],nitrocellulose filter binding,a/eIF2 β–γ dimer,displayed GDP and GTP binding curves essentially overlapping with those obtained with the γ-subunit alone
same,nitrocellulose filter binding,a/eIF2 α–γ dimer,displayed GDP and GTP binding curves essentially overlapping with those obtained with the γ-subunit alone
B1,binding result,[1],binds
same,binding result,[2],binds
